Experimental data reported in patent EP4603105A1, “PHARMACEUTICAL COMPOSITION CONTAINING CYCLIC COMPOUND HAVING SELECTIVE KRAS INHIBITORY EFFECT AGAINST HRAS AND NRAS” (CHUGAI SEIYAKU KABUSHIKI KAISHA, priority 2022, dated 2024).
Where two headings read alike, the source gives them in different places. Where a SMILES comes first, the peptide text is derived from it. Bridges are numbered along the chain shown (N, C = ends). [ ]: non-standard residue; d: D form. The star is where a group is joined. hPhe(3-Cl-4-CF3) = N[C@@H](CCc1ccc(C(F)(F)F)c(Cl)c1)C(=O)O; NPrPhe(4-CF3) = CCCN[C@@H](Cc1ccc(C(F)(F)F)cc1)C(=O)O; NMeGly(cPent) = CN[C@H](C(=O)O)C1CCCC1; NMeD = CN[C@@H](CC(=O)O)C(=O)O; NMeL = CN[C@@H](CC(C)C)C(=O)O; Morpholide = C1CN(*)CCO1; Ac5c = NC1(C(=O)O)CCCC1; Aze = O=C(O)[C@@H]1CCN1; Sar = CNCC(=O)O

Legend:
HRAS wild-type protein = HRAS wild-type protein (Homo sapiens, UniProt P01112); assay: Binding to HRAS by surface plasmon resonance (SPR), KD and KD ratio to KRAS
Outline: (§1)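 Biotinylated GDP-bound RAS was captured at about 100–300 RU. Running buffer: HBS pH 7.4, 10 mM MgCl2, 10 µM GDP, 1 mM DTT, 0.01% Tween 20, 4% DMSO.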

[1] = test system: human lung cancer strain NCI-H441; format: cell-based
Outline: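 Step one: dispense the test compound in serial DMSO dilutions. Step three: add the reagent and measure […].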

[2] = biological target: GDP-bound NRAS wild-type protein (Homo sapiens, UniProt P01111); assay: Binding to NRAS by surface plasmon resonance (SPR), KD and KD ratio to KRAS
Outline: as §1

[3] = ratio of KD for HRAS wild-type protein to KD for KRAS
[4] = ratio of KD for GDP-bound NRAS wild-type protein to KD for KRAS
[5] = ratio of KD value for HRAS wild-type protein to KD value for KRAS (SPR)
[6] = ratio of KD value for GDP-bound NRAS wild-type protein to KD value for KRAS (SPR)
[7] = ratio of the KD value with respect to HRAS wild-type protein to the KD value with respect to KRAS
[8] = ratio of the KD value with respect to GDP-bound NRAS wild-type protein to the KD value with respect to KRAS

GDP-bound NRAS wild-type protein, sequence (P01111 whole entry): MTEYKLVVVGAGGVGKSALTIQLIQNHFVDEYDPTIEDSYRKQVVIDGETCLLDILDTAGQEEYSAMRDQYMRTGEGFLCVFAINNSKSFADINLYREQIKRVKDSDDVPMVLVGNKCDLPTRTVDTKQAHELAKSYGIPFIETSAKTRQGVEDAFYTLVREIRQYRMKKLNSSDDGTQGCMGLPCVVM
HRAS wild-type protein, sequence (P01112 whole entry): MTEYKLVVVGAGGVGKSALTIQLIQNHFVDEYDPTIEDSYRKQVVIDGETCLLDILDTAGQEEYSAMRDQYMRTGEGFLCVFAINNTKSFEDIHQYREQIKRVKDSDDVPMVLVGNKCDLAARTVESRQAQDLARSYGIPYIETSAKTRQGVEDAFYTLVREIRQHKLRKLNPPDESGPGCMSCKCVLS

Structure (SMILES) | HRAS /KRAS (HRAS wild-type protein; [3]) | IC50 [1] | NRAS /KRAS [2, 4] | further results
CCO[C@@H]1C[C@H]2C(=O)NC3(CCC3)C(=O)N(C)[C@@H](C3CCCC3)C(=O)N(C)[C@H](C(=O)N(C)C)CC(=O)N(C)[C@@H](CC(C)C)C(=O)N[C@@H]([C@@H](C)CC)C(=O)N(C)CC(=O)N(C)[C@H]3C/C=C\CCN(C3=O)[C@@H](Cc3ccc(C(F)(F)F)cc3)C(=O)N(C)CC(=O)N[C@@H](CCc3cc(F)c(C(F)(F)F)c(F)c3)C(=O)N2C1 [PP1107] | A (a compound having 10 or more and less than 20 is denoted as A) | 5.4 nM | A (a compound having 10 or more and less than 20 is denoted as A) | –
CCO[C@@H]1C[C@H]2C(=O)NC3(CC(F)(F)C3)C(=O)N(C)[C@@H](C3CCCC3)C(=O)N(C)[C@H](C(=O)N(C)C)CC(=O)N(C)[C@@H](CC3CCC3)C(=O)N[C@@H]([C@@H](C)CC)C(=O)N(C)CC(=O)N(C)[C@H]3C/C=C\CCN(C3=O)[C@@H](Cc3ccc(C(F)(F)F)cc3)C(=O)N(C)CC(=O)N[C@@H](CCc3cc(F)c(C(F)(F)F)c(F)c3)C(=O)N2C1 [PP1742] | – | 1.6 nM | – | HRAS /KRAS (HRAS wild-type protein; [5]): A (a compound having 10 or more and less than 20 is denoted as A); NRAS /KRAS [2, 6]: A (a compound having 10 or more and less than 20 is denoted as A)
CC[C@H](C)[C@@H]1NC(=O)[C@H](CC(C)C)N(C)C(=O)C[C@@H](C(=O)N(C)C)N(C)C(=O)[C@H](C2CCCC2)N(C)C(=O)C2(CCCC2)NC(=O)[C@@H]2CCCN2C(=O)[C@H](CCc2cc(F)c(C(F)(F)F)c(F)c2)NC(=O)CN(C)C(=O)[C@H](Cc2ccc(C(F)(F)F)cc2)N2CCCCC[C@@H](C2=O)N(C)C(=O)CN(CC)C1=O [PP0514] | – | 311 nM | – | HRAS /KRAS (HRAS wild-type protein; [7]): B (a compound having 3 or more and less than 10 is denoted as B); NRAS /KRAS [2, 8]: B (a compound having 3 or more and less than 10 is denoted as B)
CC[C@H](C)[C@@H]1NC(=O)[C@H](CC2CC2)N(C)C(=O)C[C@@H](C(=O)N2CCCC2)N(C)C(=O)[C@H](C2CCCC2)N(C)C(=O)C2(CCC2)NC(=O)[C@@H]2CC(F)(F)CN2C(=O)[C@H](CCc2cc(F)c(C(F)(F)F)c(F)c2)NC(=O)CN(C)C(=O)[C@H](Cc2ccc(C(F)(F)F)cc2)N2CC/C=C\C[C@@H](C2=O)N(C)C(=O)CN(C)C1=O [PP1512] | – | 16.9 nM | – | HRAS /KRAS (HRAS wild-type protein; [5]): A (a compound having 10 or more and less than 20 is denoted as A); NRAS /KRAS [2, 6]: AA (a compound having 20 or more is denoted as AA)
CCC[C@H]1C(=O)N[C@@H]([C@@H](C)CC)C(=O)N(C)CC(=O)N(C)[C@H]2C/C=C\CCN(C2=O)[C@@H](Cc2ccc(C(F)(F)F)cc2)C(=O)N(C)CC(=O)N[C@@H](CCc2cc(F)c(C(F)(F)F)c(F)c2)C(=O)N2C[C@H](OCC)C[C@H]2C(=O)NC2(CCC2)C(=O)N(C)[C@@H](C2CCCC2)C(=O)N(C)[C@H](C(=O)N2CC3CCC(C2)O3)CC(=O)N1C [PP1315] | – | 34.5 nM | – | HRAS /KRAS (HRAS wild-type protein; ratio of KD with respect to HRAS wild-type protein to KD with respect to KRAS): A (a compound having 10 or more and less than 20 is denoted as A); NRAS /KRAS ([2]; ratio of KD with respect to GDP-bound NRAS wild-type protein to KD with respect to KRAS): AA (a compound having 20 or more is denoted as AA)
CCO[C@@H]1C[C@H]2C(=O)NC3(CCC3)C(=O)N(C)[C@@H](C3CCCC3)C(=O)N(C)[C@H](C(=O)N3CCOCC3)CC(=O)N(C)[C@@H](CC3CC3)C(=O)N[C@@H]([C@@H](C)CC)C(=O)N(C)CC(=O)N(C)[C@H]3CCCCN(C3=O)[C@@H](Cc3ccc(C(F)(F)F)cc3)C(=O)N(C)CC(=O)N[C@@H](CCc3cc(F)c(C(F)(F)F)c(F)c3)C(=O)N2C1 [PP0712] | – | 7.1 nM | – | HRAS /KRAS (HRAS wild-type protein; [7]): C (A compound having a KD ratio of 0.1 or more and less than 3 is denoted as C); NRAS /KRAS [2, 8]: C (A compound having a KD ratio of 0.1 or more and less than 3 is denoted as C)
CC[C@H](C)[C@@H]1NC(=O)[C@H](CC2CC2)N(C)C(=O)C[C@@H](C(=O)N(CC)CC)N(C)C(=O)[C@H](C2CCCC2)N(C)C(=O)C2(CC(C)(C)C2)NC(=O)[C@@H]2C[C@@H](F)CN2C(=O)[C@H](CCc2cc(F)c(C(F)(F)F)c(F)c2)NC(=O)CN(C)C(=O)[C@H](Cc2ccc(C(F)(F)F)cc2)N2CC/C=C\C[C@@H](C2=O)N(C)C(=O)CN(C)C1=O [PP1571] | – | 6.8 nM | – | HRAS /KRAS (HRAS wild-type protein; [5]): A (a compound having 10 or more and less than 20 is denoted as A); NRAS /KRAS [2, 6]: A (a compound having 10 or more and less than 20 is denoted as A)
CC[C@H](C)[C@@H]1NC(=O)[C@H](CC(C)C)N(C)C(=O)C[C@@H](C(=O)N(C)C)N(CCC2CCCC2)C(=O)[C@H](C2CCCC2)N(C)C(=O)C2(CCC2)NC(=O)[C@@H]2CC(F)(F)CN2C(=O)[C@H](CCc2ccc(C(F)(F)F)c(Cl)c2)NC(=O)CN(C)C(=O)[C@H](Cc2ccc(F)cc2)N2CCCCC[C@@H](C2=O)N(C)C(=O)CN(C)C1=O [PP0977] | A (a compound having 10 or more and less than 20 is denoted as A) | 1120 nM | B (a compound having 3 or more and less than 10 is denoted as B) | –
CCO[C@@H]1C[C@H]2C(=O)NC3(CC(C)(C)C3)C(=O)N(C)[C@@H](C3CCCC3)C(=O)N(C)[C@H](C(=O)N(C)CC)CC(=O)N(C)[C@@H](CC(F)F)C(=O)N[C@@H]([C@@H](C)CC)C(=O)N(C)CC(=O)N(C)[C@H]3C/C=C\CCN(C3=O)[C@@H](Cc3ccc(C(F)(F)F)cc3)C(=O)N(C)CC(=O)N[C@@H](CCc3ccc(C(F)(F)F)c(OC)c3)C(=O)N2C1 [PP1655] | – | 1.6 nM | – | HRAS /KRAS (HRAS wild-type protein; [5]): A (a compound having 10 or more and less than 20 is denoted as A); NRAS /KRAS [2, 6]: A (a compound having 10 or more and less than 20 is denoted as A)
CCCN1C(=O)CN(C)C(=O)CN(C)C(=O)[C@H]([C@@H](C)CC)NC(=O)[C@H](CC(C)C)N(C)C(=O)C[C@@H](C(=O)N2CCOCC2)N(C)C(=O)[C@H](C2CCCC2)N(C)C(=O)C2(CCCC2)NC(=O)[C@@H]2CCN2C(=O)[C@H](CCc2ccc(C(F)(F)F)c(Cl)c2)NC(=O)CN(C)C(=O)[C@@H]1Cc1ccc(C(F)(F)F)cc1 [PP0260] ([NMeL]I[Sar][Sar][NPrPhe(4-CF3)][Sar][hPhe(3-Cl-4-CF3)][Aze][Ac5c][NMeGly(cPent)][NMeD]-Morpholide; lactam N-11) | C (A compound having a KD ratio of 0.1 or more and less than 3 is denoted as C) | 16.8 nM | B (a compound having 3 or more and less than 10 is denoted as B) | –
CCCN1C(=O)CN(C)C(=O)CN(C)C(=O)[C@H]([C@@H](C)CC)NC(=O)[C@@H]2CCCCCCC[C@@](C)(NC(=O)[C@@H]3C[C@@H](OCC)CN3C(=O)[C@H](CCc3cc(F)c(C(F)(F)F)c(F)c3)NC(=O)CN(C)C(=O)[C@@H]1Cc1ccc(C(F)(F)F)cc1)C(=O)N(C)[C@@H](C1CCCC1)C(=O)N(C)[C@H](C(=O)N1CCOCC1)CC(=O)N2C [PP0898] | B (a compound having 3 or more and less than 10 is denoted as B) | 120 nM | B (a compound having 3 or more and less than 10 is denoted as B) | –
CCC[C@H]1C(=O)N[C@@H]([C@@H](C)CC)C(=O)N(C)CC(=O)N(C)[C@H]2C/C=C\CCN(C2=O)[C@@H](Cc2ccc(C(F)(F)F)cc2)C(=O)N(C)CC(=O)N[C@@H](CCc2cc(F)c(C(F)(F)F)c(F)c2)C(=O)N2C[C@H](OCC)C[C@H]2C(=O)N(C)C2(CCC2)C(=O)N(C)[C@@H](C2CCCC2)C(=O)N(C)[C@H](C(=O)N2CCCCC2)CC(=O)N1C [PP3118] | B (a compound having 3 or more and less than 10 is denoted as B) | 6.7 nM | A (a compound having 10 or more and less than 20 is denoted as A) | –
CCC(CC)[C@H]1C(=O)N(C)[C@H](C(=O)N(C)C)CC(=O)N(C)[C@H]2CCC/C=C/c3ccc(cc3)C[C@@H](C(=O)N(C)CC(=O)N[C@@H](CCc3cc(F)c(C(F)(F)F)c(F)c3)C(=O)N3C[C@H](OC(C)C)C[C@H]3C(=O)NC3(CC(C)(C)C3)C(=O)N1C)N1CC/C=C\C[C@@H](C1=O)N(C)C(=O)CN(C)C(=O)[C@H]([C@@H](C)CC)NC2=O [PP2594] | A (a compound having 10 or more and less than 20 is denoted as A) | 6 nM | A (a compound having 10 or more and less than 20 is denoted as A) | –
CCCOC[C@H]1C(=O)N[C@@H]([C@@H](C)CC)C(=O)N2CCC[C@H]2C(=O)N(C)[C@H]2C/C=C\CCN(C2=O)[C@@H](Cc2ccc(C(F)(F)F)cc2)C(=O)N(C)CC(=O)N[C@@H](CCc2ccc(C(F)(F)F)c(OC)c2)C(=O)N2C[C@H](OCC)C[C@H]2C(=O)N(C)C2(CCC2)C(=O)N(C)[C@@H](C2CCCC2)C(=O)N(C)[C@H](C(=O)N(C)C)CC(=O)N1C [PP2322] | – | 5.8 nM | – | HRAS /KRAS (HRAS wild-type protein; [7]): B (a compound having 3 or more and less than 10 is denoted as B); NRAS /KRAS [2, 8]: A (a compound having 10 or more and less than 20 is denoted as A)
CCC[C@H]1C(=O)N[C@@H]([C@@H](C)CC)C(=O)N(C)CC(=O)N(C)[C@H]2C/C=C\CCN(C2=O)[C@@H](Cc2ccc(C(F)(F)F)cc2)C(=O)N(C)CC(=O)N[C@@H](CCc2cc(C)c(C(F)F)c(C)c2)C(=O)N2C[C@H](OCC)C[C@H]2C(=O)NC2(CC(C)(C)C2)C(=O)N(C)[C@@H](C2CCCC2)C(=O)N(C)[C@H](C(=O)N(C)C)CC(=O)N1C [PP2857] | A (a compound having 10 or more and less than 20 is denoted as A) | – | A (a compound having 10 or more and less than 20 is denoted as A) | IC50 ([1]; NCI-H441 cells, 4 days, CellTiter-Glo, read-out: NCl-H441 IC50): 61.6 nM
